Data on three compounds can be found in US9107814B2, “Micelle composition of polymer and passenger drug” (Wisconsin Alumni Research Foundation, priority 2005, dated 2015).

Structures are written as SMILES. In brackets after ≈: the same amount, converted by molar mass. Read-outs that look alike come from different tables or passages of the source.

The nature of series [1]: loading of rapamycin and geldanamycin into PEG-DSPE and PEG-PCL micelles. Type of series: physicochemical. As to conditions: micelle solution against water solubility. The text has this: The final solvent to water ratio is between about 0.1 and about 5, preferably between about 0.5 and about 4, and more preferably about 2. The micelle solution should be delivered at a rate of between about 2 s/drop and about 60 s/drop, preferably between about 5 s/drop and about 30 s/drop, and more preferably between about 10 s/drop and about 20 s/drop.

For series [2], the system named is MDA-MB-468 breast cancer cell line. As to the kind of experiment: MTS cytotoxicity assay. Type of series: cell-based. The settings on record: Homo sapiens, 96 h; MDA-MB-468, 4 days, drugs in 1% DMSO. As for the experimental part:
Cytotoxicities of the drugs to the MDA-MB-468 breast cancer cell line (ATCC) were determined. Cells are plated at a density of 3000 cells/well into 96 well plates (100 μl/well DMEM medium). After 24 hours, drugs were added dissolved in 1% DMSO. Cells were incubated with drugs for 4 days and toxicity determined using the MTS cytotoxicity assay according to manufacturer's directions (Promega, Madison, Wis.).
On the technique in general: Formazan colour is commonly taken as a measure of viable cells.

For series [3] the following is noted: preclinical trials; cited from earlier work.
For series [4] the following is noted: cited from earlier work.
For series [5] the following is noted: cited from earlier work. The source holds these as a separate data set.
The conditions of series [6]: cited from earlier work. The source holds these as a separate data set.
The conditions of series [7]: different species; cited from earlier work.

Method for physchem: The octanol-water partition coefficient of geldanamycin was determined by microemulsion electrokinetic chromatography.
Running buffer was prepared by titration of 25-mM sodium phosphate monobasic with 50-mM sodium tetraborate to pH 7.00, and 1.44 g of sodium dodecyl sulfate, 6.49 g of 1-butanol, and 0.82 g of heptane were made up to 100 ml with phosphate-borate buffer. The running buffer was ultrasonicated for 30 min in a closed 250-ml flask in ice water (G112SP1 Special Ultrasonic Cleaner, Laboratory Supplies Company Inc., Hicksville, N.Y.). […] Compounds and standards (n=3) were dissolved in the running buffer (0.05 mg/ml) with 0.5 μL/ml of nitromethane and 0.5 μL/ml of 1-phenyldodecane by ultrasonication (10 min) in a closed tube and centrifuged (16000×g, 3 min) to degas. A BioFocus 3000 capillary electrophoresis system (Bio-Rad, Hercules, Calif.) equipped with a 50-μm ID×37-cm uncoated fused-silica column (Polymicron Technologies LLC, Phoenix, Ariz.) was used for MEEKC experiments. The column was prewashed with 1-M NaOH for 5 min and before runs with 0.1-M NaOH for 1 min, ddH2O for 1 min, and running buffer for 1 min at 100 psi (690 kPa). Running conditions were 10 kV (ca. 30-35 μA, 30 min/run) at 20° C. with 1-psi·s injections (6.9 kPa·s) and detection at 210 and 232 nm. Log Po/w and retention factors, k′, were calculated using the equations:
[formula] [formula] where tr, t0, and tme are retention times of the prodrug, nitromethane, and 1-phenyldodecane, respectively. Fitting parameters a and b were determined by linear regression of known standards: pyridine, phenol, benzoic acid, anisole, benzene, toluene, dodecanoic acid, benzopyrene, and pyrene (R^2=0.996, Excel® 2003, Microsoft Corp.).

The compound `COC1=C2C[C@@H](C)C[C@H](OC)[C@H](O)[C@@H](C)/C=C(\C)[C@H](OC(N)=O)[C@@H](OC)/C=C\C=C(/C)C(=O)NC(=CC1=O)C2=O` [Geldanamycin] showed an increase in solubility in series [1] of 300 fold. Moreover, in series [2], the midpoint of inhibition, the IC50, lay at 5 nM. The “dose limiting severe hepatotoxicity” value in series [3] was 4 mg/kg. Further, the water solubility in series [4] is about 1.5 µg/mL (≈ 2.68 µM). In “physchem”, this compound showed a chromatographic logP of about 2.77. For the same compound, the MTD dog in series [5] is under 100 mg/m^2.
With `C=CCNC1=C2C[C@@H](C)C[C@H](OC)[C@H](O)[C@@H](C)/C=C(\C)[C@H](OC(N)=O)[C@@H](OC)/C=C\C=C(/C)C(=O)NC(=CC1=O)C2=O` [Prodrug 17-AAG], the MTD dog in series [5] (in vivo) is given as 500 mg/m^2. For the same compound, the dose limiting toxicity entry in series [6] (Phase I) was “GI toxicity to be dose limiting”. In series [6] (from Phase I results), the “suggested Phase II dosing” value is listed as 40 mg/m^2.
The compound `CO[C@H]1C[C@@H]2CC[C@@H](C)[C@@](O)(O2)C(=O)C(=O)N2CCCC[C@H]2C(=O)O[C@H]([C@H](C)C[C@@H]2CC[C@@H](O)[C@H](OC)C2)CC(=O)[C@H](C)/C=C(\C)[C@@H](O)[C@@H](OC)C(=O)[C@H](C)C[C@H](C)/C=C/C=C/C=C/1C` [Rapamycin] came in with an increase in solubility in series [1] of 1900 fold. The half-life result in series [7] was “more than 5 hours”. In “physchem”, the chromatographic logP amounted to 3.77.

What is called IC50 is the concentration that gives 50% inhibition. Low readings indicate greater potency in that assay, high ones weaker potency in that assay. Usually chromatographic logP stands for a lipophilicity value derived from retention on a column. Low values mean a more hydrophilic compound, high ones a more lipophilic compound.
